This is an account of results in US9907757B2, “Coated particles and pharmaceutical dosage forms” (Lek Pharmaceuticals d.d., priority 2003, dated 2018).

The nature of the data set: Oxidative degradation of amorphous and polymorphic forms of atorvastatin at 80° C. in air and oxygen (liquid chromatography). In kind it is physicochemical. The conditions noted are these: hemicalcium salt; for Sensitivity to oxygen and oxidation (conclusion): from 80° C., 3 days, air/oxygen study; for Increase of degradation products %: in respect to reference samples stored at 4° C. On the procedure:
The influence of oxygen on occurrence of degradation products of amorphous and four polymorphic forms of atorvastatin was investigated. The samples of amorphous atorvastatin and polymorphic forms I to IV of atorvastatin were exposed at 80° C. in normal (air) and oxygen atmosphere for 3 days. The assay of oxidation products was determined by liquid chromatography. All of the chosen forms of atorvastatin stored at 4° C. were analyzed as the reference samples.

Where [1] appears, read: stored at 80° C. 3 days in normal (air) atmosphere.
Setting [2] is: stored at 80° C. 3 days in oxygen atmosphere.

`CC(C)c1c(C(=O)Nc2ccccc2)c(-c2ccccc2)c(-c2ccc(F)cc2)n1CC[C@@H](O)C[C@@H](O)CC(=O)O.CC(C)c1c(C(=O)Nc2ccccc2)c(-c2ccccc2)c(-c2ccc(F)cc2)n1CC[C@@H](O)C[C@@H](O)CC(=O)O.CC(C)c1c(C(=O)Nc2ccccc2)c(-c2ccccc2)c(-c2ccc(F)cc2)n1CC[C@@H](O)C[C@@H](O)CC(=O)[O-].CC(C)c1c(C(=O)Nc2ccccc2)c(-c2ccccc2)c(-c2ccc(F)cc2)n1CC[C@@H](O)C[C@@H](O)CC(=O)[O-].[Ca+2]` (relative stereo) [Amorphous ATV, (R-(R*,R*))-2-(4-fluorophenyl-beta, delta-dihydroxy-5-(1-methylethyl)-3-phenyl-4-((phenylamino)carbonyl)-1H-pyrrole-1-heptanoic acid hemicalcium salt]: the “Sensitivity to oxygen and oxidation (conclusion)” value (shortened to “Sensitivity”) (listed as amorphous atorvastatin) is reported as “highly sensitive to oxidation”. The “Increase of degradation products %” value was 1.04% under setting [1] and 3.4% under setting [2].
Turning to `CC(C)c1c(C(=O)Nc2ccccc2)c(-c2ccccc2)c(-c2ccc(F)cc2)n1CC[C@@H](O)C[C@@H](O)CC(=O)O.CC(C)c1c(C(=O)Nc2ccccc2)c(-c2ccccc2)c(-c2ccc(F)cc2)n1CC[C@@H](O)C[C@@H](O)CC(=O)O.CC(C)c1c(C(=O)Nc2ccccc2)c(-c2ccccc2)c(-c2ccc(F)cc2)n1CC[C@@H](O)C[C@@H](O)CC(=O)[O-].CC(C)c1c(C(=O)Nc2ccccc2)c(-c2ccccc2)c(-c2ccc(F)cc2)n1CC[C@@H](O)C[C@@H](O)CC(=O)[O-].[Ca+2]` (relative stereo) [Crystalline form I, (R-(R*,R*))-2-(4-fluorophenyl-beta, delta-dihydroxy-5-(1-methylethyl)-3-phenyl-4-((phenylamino)carbonyl)-1H-pyrrole-1-heptanoic acid hemicalcium salt], the “Sensitivity” value is “stable to oxygen and oxidation”. Further, the “Increase of degradation products %” value under setting [1] turned out to be 0.04%. In addition, the “Increase of degradation products %” value under setting [2] is on record as 0.07%.
Take `CC(C)c1c(C(=O)Nc2ccccc2)c(-c2ccccc2)c(-c2ccc(F)cc2)n1CC[C@@H](O)C[C@@H](O)CC(=O)O.CC(C)c1c(C(=O)Nc2ccccc2)c(-c2ccccc2)c(-c2ccc(F)cc2)n1CC[C@@H](O)C[C@@H](O)CC(=O)O.CC(C)c1c(C(=O)Nc2ccccc2)c(-c2ccccc2)c(-c2ccc(F)cc2)n1CC[C@@H](O)C[C@@H](O)CC(=O)[O-].CC(C)c1c(C(=O)Nc2ccccc2)c(-c2ccccc2)c(-c2ccc(F)cc2)n1CC[C@@H](O)C[C@@H](O)CC(=O)[O-].[Ca+2]` (relative stereo) [Crystalline form II, (R-(R*,R*))-2-(4-fluorophenyl-beta, delta-dihydroxy-5-(1-methylethyl)-3-phenyl-4-((phenylamino)carbonyl)-1H-pyrrole-1-heptanoic acid hemicalcium salt]: the “Sensitivity” value was “slightly sensitive to oxidation”. The “Increase of degradation products %” value under setting [1] is reported as 0.25%. Besides, under setting [2], the “Increase of degradation products %” value amounted to 0.71%.
The corresponding values for `CC(C)c1c(C(=O)Nc2ccccc2)c(-c2ccccc2)c(-c2ccc(F)cc2)n1CC[C@@H](O)C[C@@H](O)CC(=O)O.CC(C)c1c(C(=O)Nc2ccccc2)c(-c2ccccc2)c(-c2ccc(F)cc2)n1CC[C@@H](O)C[C@@H](O)CC(=O)O.CC(C)c1c(C(=O)Nc2ccccc2)c(-c2ccccc2)c(-c2ccc(F)cc2)n1CC[C@@H](O)C[C@@H](O)CC(=O)[O-].CC(C)c1c(C(=O)Nc2ccccc2)c(-c2ccccc2)c(-c2ccc(F)cc2)n1CC[C@@H](O)C[C@@H](O)CC(=O)[O-].[Ca+2]` (relative stereo) [Crystalline form III, (R-(R*,R*))-2-(4-fluorophenyl-beta, delta-dihydroxy-5-(1-methylethyl)-3-phenyl-4-((phenylamino)carbonyl)-1H-pyrrole-1-heptanoic acid hemicalcium salt] are “slightly sensitive to oxidation”, 0.11% and 0.47%.
Consider `CC(C)c1c(C(=O)Nc2ccccc2)c(-c2ccccc2)c(-c2ccc(F)cc2)n1CC[C@@H](O)C[C@@H](O)CC(=O)O.CC(C)c1c(C(=O)Nc2ccccc2)c(-c2ccccc2)c(-c2ccc(F)cc2)n1CC[C@@H](O)C[C@@H](O)CC(=O)O.CC(C)c1c(C(=O)Nc2ccccc2)c(-c2ccccc2)c(-c2ccc(F)cc2)n1CC[C@@H](O)C[C@@H](O)CC(=O)[O-].CC(C)c1c(C(=O)Nc2ccccc2)c(-c2ccccc2)c(-c2ccc(F)cc2)n1CC[C@@H](O)C[C@@H](O)CC(=O)[O-].[Ca+2]` (relative stereo) [Crystalline form IV, (R-(R*,R*))-2-(4-fluorophenyl-beta, delta-dihydroxy-5-(1-methylethyl)-3-phenyl-4-((phenylamino)carbonyl)-1H-pyrrole-1-heptanoic acid hemicalcium salt], for which the “Sensitivity” value is listed as “highly sensitive to oxidation”. The “Increase of degradation products %” value under setting [1] is 1.14%. For the same compound, the “Increase of degradation products %” value under setting [2] amounted to 3.67%.
